Experimental data as given in article PMC12406203 (Journal of Medicinal Chemistry, 2025).

Columns and labels:
[1] = system: LKB1
[2] = system: PIK3CA
[3] = system: EGFR(L858R)
[4] = system: PLK4
[5] = system: PIM2
[6] = system: PLK1
[7] = system: CDK2
[8] = system: NLK
[9] = system: ALK
[10] = system: ROCK2
[11] = system: MAPKAPK5
[12] = system: p38γ
[13] = system: EPHA2
[14] = system: AURKB
[15] = system: panel of 103 kinases; assay: KINOMEscan kinase selectivity profiling (whole panel); type: binding; conditions: 10 and 1 μM
Method: The kinase inhibition profile of compounds 94 and 95 was assessed against 103 protein kinases by Eurofins DiscoverX, LLC., using the KINOMEscan assay. Kinase-tagged T7 phage strains were grown in parallel in 24-well blocks in an E. coli host derived from the BL21 strain. E. coli were grown to log-phase and infected with T7 phage from a frozen stock (multiplicity of infection = 0.4) and incubated with shaking at 32 °C until lysis (90–150 min). The lysates were centrifuged (6000g) and filtered (0.2 μm) to remove cell debris. The remaining kinases were produced in HEK-293 cells and subsequently tagged with DNA for qPCR detection. […] The liganded beads were blocked with excess biotin and washed with blocking buffer (SeaBlock (Pierce), 1% BSA, 0.05% Tween 20, 1 mM DTT) to remove unbound ligand and to reduce nonspecific phage binding. […] Test compounds were prepared as 100× stocks in 100% DMSO and directly diluted into the assay. All reactions were performed in polypropylene 384-well plates in a final volume of 0.02 mL. […] The kinase concentration in the eluates was measured by qPCR.
The compound(s) were screened at the concentration(s) requested, and results for primary screen binding interactions are reported as RA (%), where lower numbers indicate stronger hits in the matrix. RA=(testcompoundsignal−PCsignal/NCsignal−PCsignal)×100
Test compound = Cpd. […]

[16] = system: JAK3(JH1domain-catalytic)
[17] = system: TSSK1B
[18] = system: LCK
[19] = for Pe ± SEM: BBB-PAMPA, pH 7.4, n = 2 novel compounds, n = 3 reference drugs; for CNS (+/–): predicted BBB permeation from Pe
[20] = system: IGF1R
[21] = system: TLR4, COX-2, NLRP3, cPLA2 levels in brains of LPS-treated mice; assay: Western blot of brains of LPS-treated mice (ex vivo); type: in vivo; conditions: 94, 95: 10 mg/kg i.p.; rivastigmine 1 mg/kg i.p.; vs LPS-treated control
Method: After the completion of cognitive assays carried out in the LPS model, the mice were sacrificed, and their brains were collected and stored for further analysis. In the ex vivo part of the study, murine brains were homogenized using T-PER mammalian protein extraction reagent (Thermo Fisher Scientific, Waltham, MA, USA) with protease (Merck Millipore, Burlington, MA, USA) and phosphatase inhibitors (Cayman Chemical, Ann Arbor, MI, USA). The total protein concentrations were determined using the Bradford reaction. Forty μg of the total proteins were solubilized in Laemmli buffer with 2% 2-mercaptoethanol and were subject to 10% SDS-polyacrylamide gel electrophoresis. The anticyclooxygenase 2 (COX-2, diluted 1:1000), antitoll-like receptor 4 (TLR4, diluted 1:1000), anticytosolic phospholipase A2 (cPLA2, 1:1000), and anti-inflammasome (NLPR3, diluted 1:500) were used (Thermo Fisher Scientific, Waltham, MA, USA). The endogenous control was β-actin (1:1000) (Thermo Fisher Scientific, Waltham, MA, USA). The secondary antibody was antirabbit IgG (HRP) diluted 1:2000 (Thermo Fisher Scientific, Waltham, MA, USA). Proteins were detected using the Clarity Western ECL Luminol Substrate (Bio-Rad, Hercules, CA, USA). Chemi Doc Camera with Image Lab 6.1 software (Bio-Rad) was used to quantify the integrated optical density of the bands. The results were normalized to the data obtained for β-actin after stripping the PVDF membrane using Restore Western Blot Stripping Buffer (Thermo Fisher Scientific, Waltham, MA, USA) and expressed as relative to the control. This thorough process ensures the validity and reliability of the results.

[22] = system: ABL1-nonphosphorylated
[23] = system: mice (motor coordination); assay: Rotarod test; conditions: 10 mg/kg i.p., mice
Method: For behavioral tests, the mice were selected randomly; each group consisted of 7–10 mice.
In the rotarod, locomotor activity, and MWM tests, only one dose effective in the scopolamine model of amnesia was evaluated.
Three days before the rotarod test, the mice were trained on the rotarod apparatus (Rotarod apparatus, May Commat RR0711, Turkey; rod diameter: 2 cm) that was rotated at a fixed speed of 18 rpm. In each training session, the mice were placed on the rotating rod for 3 min with an unlimited number of trials. The proper experiment was performed 24 h after the last training trial. […] Motor impairments in mice were defined as the inability to remain on the rotarod apparatus for 1 min. The results are expressed as the mean time spent on the rotarod.

[24] = system: ERK 2
[25] = system: FGFR3
[26] = system: MAP3K4
[27] = system: mice (locomotor activity); assay: Locomotor activity test; conditions: 10 mg/kg i.p.
Text: The mice had unlimited access to food and water prior to the experiment. Specified conditions for the maintenance of mice were ensured throughout the experiment, including tree bedding (Transwior, Poland) and cage enrichment (tunnels, nesting material, wooden igloos, etc.). For behavioral tests, the mice were selected randomly; each group consisted of 7–10 mice. […] After in vivo tests, the animals were immediately euthanized, and their tissues were collected and stored for further ex vivo testing.
They were administered intraperitoneally (i.p.) 60 min before the acquisition trial of the PA, NOR, and MWM tasks.
The locomotor activity test was performed using activity cages (40 cm × 40 cm × 30 cm, supplied with IR beam emitters) (Activity Cage 7441, Ugo Basile, Italy) connected to a counter for the recording of light-beam interrupts. […] The animals’ movements (i.e., the number of light-beam crossings) were counted during the next 60 min of the test. Before the experiment, the mice were habituated to activity cages for 15 min.

[28] = system: PAK4
[29] = system: p38β
[30] = system: CSF1R

CC(C)Cn1ncc2cc(Cc3ccc(F)cc3F)c(C(=O)NCCN(C)C)cc21 [Compound 94, 5-(2,4-Difluorobenzyl)-N-(2-(dimethylamino)ethyl)-1-isobutyl-1H-indazole-6-carboxamide]
RA @ 1000nM [1]: 100%
RA @ 10000nM [1]: 96%
RA @ 1000nM [2]: 77%
RA @ 10000nM [2]: 95%
RA @ 1000nM [3]: 100%
RA @ 10000nM [3]: 66%
RA @ 1000nM [4]: 100%
RA @ 10000nM [4]: 100%
RA @ 1000nM [5]: 100%
RA @ 10000nM [5]: 100%
RA @ 1000nM [6]: 100%
RA @ 10000nM [6]: 100%
RA @ 1000nM [7]: 82%
RA @ 10000nM [7]: 97%
RA @ 1000nM [8]: 100%
RA @ 10000nM [8]: 98%
RA @ 1000nM [9]: 93%
RA @ 10000nM [9]: 83%
RA @ 1000nM [10]: 87%
RA @ 10000nM [10]: 96%
RA @ 1000nM [11]: 100%
RA @ 10000nM [11]: 100%
RA @ 1000nM [12]: 93%
RA @ 10000nM [12]: 94%
RA @ 1000nM [13]: 97%
RA @ 10000nM [13]: 100%
RA @ 1000nM [14]: 84%
RA @ 10000nM [14]: 68%
kinase selectivity [15]: high selectivity for p38α MAPK
RA @ 1000nM [16]: 100%
RA @ 10000nM [16]: 100%
RA @ 1000nM [17]: 77%
RA @ 10000nM [17]: 89%
RA @ 1000nM [18]: 100%
RA @ 10000nM [18]: 97%
Pe ± SEM [19]: 10.4 ± 0.01 ×10–6 cm/s
CNS (+/–) [19]: CNS+ (CNS+ indicates high predicted BBB permeation [Pe (×10–6 cm/s) > 4.0])
RA @ 1000nM [20]: 94%
RA @ 10000nM [20]: 84%
brain cPLA2 expression [21]: no difference
brain levels of TLR4, COX-2, and NLRP3 [21]: significantly lower levels
RA @ 1000nM [22]: 85%
RA @ 10000nM [22]: 97%
motor adverse effects (rotarod test) [23]: no motor adverse effects
RA @ 1000nM [24]: 100%
RA @ 10000nM [24]: 98%
RA @ 1000nM [25]: 100%
RA @ 10000nM [25]: 100%
RA @ 1000nM [26]: 49%
RA @ 10000nM [26]: 100%
motor adverse effects (locomotor activity test) [27]: no motor adverse effects
RA @ 1000nM [28]: 97%
RA @ 10000nM [28]: 96%
RA @ 1000nM [29]: 72%
RA @ 10000nM [29]: 15%
RA @ 1000nM [30]: 100%
RA @ 10000nM [30]: 86%

CN(C)CCNC(=O)c1cc2c(cnn2CC2CCCCC2)cc1Cc1ccc(F)cc1F [Compound 95, 1-(Cyclohexylmethyl)-5-(2,4-difluorobenzyl)-N-(2-(dimethylamino)ethyl)-1H-indazole-6-carboxamide]
RA @ 1000nM [1]: 100%
RA @ 10000nM [1]: 86%
RA @ 1000nM [2]: 100%
RA @ 10000nM [2]: 100%
RA @ 1000nM [3]: 100%
RA @ 10000nM [3]: 100%
RA @ 1000nM [4]: 100%
RA @ 10000nM [4]: 100%
RA @ 1000nM [5]: 100%
RA @ 10000nM [5]: 100%
RA @ 1000nM [6]: 100%
RA @ 10000nM [6]: 100%
RA @ 1000nM [7]: 99%
RA @ 10000nM [7]: 100%
RA @ 1000nM [8]: 100%
RA @ 10000nM [8]: 100%
RA @ 1000nM [9]: 62%
RA @ 10000nM [9]: 92%
RA @ 1000nM [10]: 83%
RA @ 10000nM [10]: 100%
RA @ 1000nM [11]: 100%
RA @ 10000nM [11]: 100%
RA @ 1000nM [12]: 100%
RA @ 10000nM [12]: 99%
RA @ 1000nM [13]: 100%
RA @ 10000nM [13]: 100%
RA @ 1000nM [14]: 99%
RA @ 10000nM [14]: 71%
kinase selectivity [15]: high selectivity for p38α MAPK
RA @ 1000nM [16]: 100%
RA @ 10000nM [16]: 100%
RA @ 1000nM [17]: 100%
RA @ 10000nM [17]: 79%
RA @ 1000nM [18]: 94%
RA @ 10000nM [18]: 100%
Pe ± SEM [19]: 13.2 ± 1.1 ×10–6 cm/s
CNS (+/–) [19]: CNS+ (CNS+ indicates high predicted BBB permeation [Pe (×10–6 cm/s) > 4.0])
RA @ 1000nM [20]: 100%
RA @ 10000nM [20]: 93%
brain cPLA2 expression [21]: no difference
brain levels of TLR4, COX-2, and NLRP3 [21]: significantly lower levels
RA @ 1000nM [22]: 90%
RA @ 10000nM [22]: 90%
motor adverse effects (rotarod test) [23]: no motor adverse effects
RA @ 1000nM [24]: 100%
RA @ 10000nM [24]: 100%
RA @ 1000nM [25]: 100%
RA @ 10000nM [25]: 92%
RA @ 1000nM [26]: 100%
RA @ 10000nM [26]: 60%
motor adverse effects (locomotor activity test) [27]: no motor adverse effects
RA @ 1000nM [28]: 100%
RA @ 10000nM [28]: 88%
RA @ 1000nM [29]: 84%
RA @ 10000nM [29]: 18%
RA @ 1000nM [30]: 100%
RA @ 10000nM [30]: 79%
